Measurements as given in US20230007838A1, “FUNCTIONALIZED LONG-CHAIN HYDROCARBON MONO- AND DI-CARBOXYLIC ACIDS AND THEIR USE FOR THE PREVENTION OR TREATMENT OF DISEASE” (ESPERVITA THERAPEUTICS, INC., priority 2019, published 2023).

Assays:
primary hepatocytes (m) = experiment: De novo lipogenesis (DNL) in mouse primary hepatocytes; type: cell-based; conditions: Hepatocyte
Hepa1-6 cells [1] = experiment: Clonogenicity (colony formation) in Hepa1-6 liver cancer cells; type: cell-based, murine; conditions: Mus musculus, 168 h; Hepa1-6 (m), 7 days treatment
Description: (§1) Liver cancer cell lines Hep3B (human) and Hepa1-6 (murine) were maintained in either Eagle's Minimum Essential Medium (Corning) for Hep3B cells or High Glucose DMEM (Gibco) for Hepa1-6 cells, supplemented with 10% FBS (Gibco) and 1% Antibiotic-Antimycotic (Thermo-Fisher Scientific). Each cell line was seeded at 1000 cells/well in 12-well plates. The next day, the media were replaced, and cells were treated with 0 (vehicle control, 0.1% DMSO), 1, 5, 10, 30, 50, or 100 μM Compound I-32, I-61, I-1, or III-1 (final concentration of DMSO 0.1%) for 7 days. On day 9, the media were removed, and cells were fixed with 10% formalin (500 μl) for 10 minutes at room temperature, washed with 1×PBS and stained with crystal violet. After 10 minutes the excess stain was removed by rinsing three times with tap water. The plates were allowed to dry overnight, then the number of colonies (>50 cells) in each well were counted using light microscopy as described previously by Villiani L. A., et al.

Hep3B cells [2] = experiment: Clonogenicity (colony formation) in Hep3B liver cancer cells; type: cell-based; conditions: Homo sapiens, 168 h, 7 days treatment
Description: as §1

Hepa1-6 cells [3] = experiment: Cancer cell proliferation (PrestoBlue) in Hepa1-6 cells; type: cell-based, murine; conditions: Hepa1-6 (m), 72 hours
Description: (§2) Human liver cancer cells Hep3B and murine liver cancer cells Hepa1-6, respectively, were seeded at a cell density of 3000 cells/well in 96-well plates using either Eagle's Minimum Essential Medium (Corning) for Hep3B or Dulbecco's Modified Eagle's Medium (DMEM) High Glucose (Gibco) for Hepa1-6 cells, supplemented with 10% fetal bovine serum (FBS, Gibco) and 1% Antibiotic-Antimycotic solution (Thermo-Fisher Scientific). The next day, the cells were treated with 0 (vehicle control), 0.1, 0.5, 1, 5, 10, 30, 50 or 100 μM Compound I-32, I-61, I-1, or III-1 (final concentration of DMSO 0.1%) and were allowed to grow for 72 hours at 37° C. On day 5, 10 μl of PrestoBlue™ Cell Viability Reagent (Invitrogen) was added to each well and the plate was incubated at 37° C. for an additional 1-2 hours.

Hep3B cells [4] = experiment: Cancer cell proliferation (PrestoBlue) in Hep3B cells; type: cell-based, human; conditions: Hep3B (h), 72 hours
Description: as §2

Hep3B cells [5] = experiment: Combination study with sorafenib or lenvatinib, proliferation in Hep3B cells; conditions: for Synergistic or additive effect on antiproliferative activity (CompuSyn analysis): in the presence of sorafenib or lenvatinib, FIGS. 8A-8D; for IC50: read-out: IC50 for inhibition of proliferation
Description: (§3) Hep3B (supplied by ATCC) or Hepa1-6 (supplied by ATCC) cells were seeded in 96-well plates at a density of 500 cells/well with complete media. […] Then, cells were incubated in an incubator for 72 h. On day 5, 10 μl of presto blue (Invitrogen, cat # A13261) cell viability reagent was added in each 96-well plate and incubated at 37° C. for 1-2 h. After incubation, fluorescence was measured with an excitation/emission wavelength of 560/590 nm. […] Proliferation IC50 values were calculated using a non-linear regression model in Graph pad Prism 8.

Hepa1-6 cells [6] = experiment: Combination study with sorafenib or lenvatinib, proliferation in Hepa1-6 cells
Description: as §3

IC50 (Hepa1-6 cells [1]) [µM] | IC50 (Hep3B cells [2]) [µM] | IC50 (Hep3B cells [5]; Homo sapiens, Hep3B) [µM] | IC50 (Hep3B cells [5]; Hep3B cells, in the absence of a compound of the invention, separate experiment (data not shown)) [µM] | SMILES | IC50 (primary hepatocytes (m)) [µM] | Cancer Cell Proliferation % reduction vs control at 100 μM, Mean (Standard Deviation) (Hepa1-6 cells [3]) | Cancer Cell Proliferation % reduction vs control at 100 μM, Mean (Standard Deviation) (Hep3B cells [4]) | Synergistic or additive effect on antiproliferative activity (CompuSyn analysis) (Hep3B cells [5]; Hep3B cells) | IC50 (Hepa1-6 cells [6]; Mus musculus, Hepa1-6, read-out: IC50 for inhibition of proliferation) [µM] | IC50 (Hepa1-6 cells [6]; read-out: IC50 for inhibition of proliferation, Hepa1-6 cells, in the absence of a compound of the invention, separate experiment (data not shown)) [µM]
55.6 | 53.9 |  |  | CC(C)(CCCCc1ccc(CCCCC(C)(C)C(=O)O)cc1)C(=O)O [Compound I-1, 6,6′-(1,4-phenylene)bis(2,2-dimethylhexanoic acid)] | 12.1 | 25.9 (5.7) % | 41.8 (8.4) % |  |  | 
52.3 | 41.7 |  |  | CC(C)(CCCCc1cccc(CCCCC(C)(C)C(=O)O)c1)C(=O)O [Compound I-32, 6-[3-(5-Carboxy-5-methylhexyl)-phenyl]-2,2-dimethylhexanoic acid] | 8.3 | 18.6 (3.1) % | 30.8 (2.6) % | synergistic inhibition |  | 
73.4 | 57.3 |  |  | CC(C)(CCCc1ccccc1CCCC(C)(C)C(=O)O)C(=O)O [Compound I-61, 5,5′-(1,2-Phenylene)bis(2,2-dimethylpentanoic acid)] |  | 21.8 (8.9) % | 35.7(5.8) % | synergistic inhibition |  | 
61 | 55.6 |  |  | CC(C)(CCCc1ccc(CCCC(C)(C)C(=O)O)cc1)C(=O)O [III-1, 1,4-Bis(4-carboxy-4-methylpentyl)benzene] |  | 15.7 (6.7) % | 29.7 (6.2) % |  |  | 
 |  | 0.5 |  | COc1cc2nccc(Oc3ccc(NC(=O)NC4CC4)c(Cl)c3)c2cc1C(N)=O [lenvatinib, reference compound] |  |  |  |  | 30 | 
 |  |  | 3 | CNC(=O)c1cc(Oc2ccc(NC(=O)Nc3ccc(Cl)c(C(F)(F)F)c3)cc2)ccn1 [sorafenib, reference compound] |  |  |  |  |  | 5
